Here are results for one molecule from US10492518B2, “Blood lipid-lowering composition, method for preparing the same and use thereof” (INFINITUS (CHINA) COMPANY LTD., priority 2018, dated 2019).

In this assay the test system is mixed hyperlipidemia model in SD rat. Nature of the assay: Test of the blood lipid-lowering efficacy: serum TC, TG, HDL-C, LDL-C and apo-A1 after 30 days oral administration. In kind it is in vivo. As to conditions: positive control, atorvastatin calcium 0.83 mg/Kg oral, high fat diet SD rats. On the procedure: Experiment object: compositions of examples 1 to 4, single component group (500 mg of echium seed oil), and two positive control groups: fish oil group (180 mg of EPA and 120 mg of DHA in each 1000 mg oil fish, purchased from Amway), and atorvastatin calcium group (each tablet was 20 mg containing 10 mg of active ingredient atorvastatin calcium, purchased from Pfizer Pharmaceutical Co., Ltd.).
Reference was made to the test method of adjunctive blood lipid-lowering function in the Technical specification for health care food inspection and evaluation. The SPF grade male SD rats were chosen as the experimental animals. After the adaptation period, an animal model of mixed hyperlipidemia was established, and the rats were randomly divided into groups according to the TC level.
There were three dosage groups, two positive control groups, one blank control group and one model control group. In low-dosage group, the dosage of the test sample was equal to 5 times ([…]) of the recommended amount for human; for the other two dosage groups, the dosages were respectively equal to 10 times (333.33 mg/kg) and 25 times (833.33 mg/kg) of the recommended amount for human. The dosage of the positive control group was equal to 5 times of the recommended amount for human (fish oil: 150 mg/Kg; atorvastatin calcium 0.83 mg/Kg). The blank control group and the model control group were administered with distilled water of the same volume by intragastric gavage. Each of the groups was weighed regularly. 30 days after the administration, blood samples were collected from the rats without fasting, and the serums were separated. TC (total cholesterol), TG (total triglyceride), (high-density lipoprotein cholesterol) and apo-A1 (apolipoprotein A1) were tested. The methods were illustrated in details hereinafter.
Adaptation period: in a barrier system the rats were fed for regular feed and observed for 5 to 7 days.
The rats were randomly divided into 22 groups according to the weight, 6 rats per group. One group of rats was fed with regular feed as the blank control group. The other 21 groups were fed with high fat diet as the model control group. All rats were weighed once a week.
20 days after the model control groups were fed with high fat diet, blood samples (1 to 1.5 mL of blood from the tail vein) were collected from the rats of the blank control group and the model control group without fasting. After the blood collection, the serum were quickly separated and transferred to a new centrifuge tube, and then cryopreserved at −20° C. for test. ELISA test kits for cholesterol, triglyceride, HDL-cholesterol and LDL-cholesterol were used to test the levels of TC, TG, LDL-C and HDL-C in the rat serum. […]

Take `CC(C)c1c(C(=O)Nc2ccccc2)c(-c2ccccc2)c(-c2ccc(F)cc2)n1CC[C@@H](O)C[C@@H](O)CC(=O)[O-].CC(C)c1c(C(=O)Nc2ccccc2)c(-c2ccccc2)c(-c2ccc(F)cc2)n1CC[C@@H](O)C[C@@H](O)CC(=O)[O-].[Ca+2]` [Atorvastatin Calcium, atorvastatin calcium]: the “Serum HDL-C, Mean Value ± Standard Deviation” value came out at 919.74 ± 150.63 µmol/L; the “Serum LDL-C, Mean Value ± Standard Deviation” value was 853.24 ± 236.19 µmol/L; the “Serum total cholesterol (TC), Mean Value ± Standard Deviation” value turned out to be 1117.14 ± 171.07 µmol/L; the “Serum triglyceride (TG), Mean Value ± Standard Deviation” value worked out at 189.71 ± 45.83 µmol/L.
